test system: peripheral blood mononuclear cells (PBMCs); assay: IFN-γ ELISPOT immunogenicity assay in PBMCs; type: cell-based, human; details: single peptides, PBMCs of healthy people, compared to control untreated with peptides; FIG. 1
Description: To confirm the immunogenicity of the 13 peptides selected in Example 1, interferon gamma (IFNg)-enzyme linked immuno-SPOT assay (ELISPOT) was performed.
This experiment is a sensitive immunoassay that can detect cytokines secreted by a single cell. By attaching the cytokines secreted when cells are activated to a capture antibody, the secreted cytokines can be measured without being affected by proteins expressed on the cell surface or proteolytic enzymes. After attaching the cytokine to the capture antibody, the cells are removed, a detecting antibody conjugated to an enzyme that can recognize the attached capture antibody is added, and a chromogenic substrate for the enzyme is added, forming a chromogenic spot at the location of the cell secreting the cytokine, and the number of spots can be used to determine the number of cells that have responded to the stimulating antigen.
The peripheral blood mononuclear cells (PBMCs) required for the experiment were isolated from human venous blood as follows. The venous blood was diluted with 1×PBS, placed in SepMate-50 tubes, and centrifuged at 800 g for 20 minutes at room temperature. After centrifugation, the plasma and the separated PBMCs were washed, placed in each well of a 6 well tissue culture plate at a concentration of 1×10^6 cells/mL, and cultured overnight in an incubator (37° C., 5% CO2). The next day, the PBMC culture solution was recovered and centrifuged at 2000 rpm for 15 minutes at room temperature. After centrifugation, PBMCs were seeded in a 6 well cell culture plate, and peptides were added thereto and cultured to stimulate the cells.
At this time, the 13 peptides selected in Example 1 were treated alone or with various peptide combinations, and an untreated group and a ConA group were also prepared for comparative analysis. […] After attaching ELI-FOIL to the dried ELISPOT plate and stamping the membrane, the number of spots in each well was read using an ELISPOT reader. […]

Sequence	immunogenicity (IFN-γ ELISPOT spots)
FLWGPRALV [CHA-11]	lowest immunogenicity
LMLGEFLKL [CHA-6, Survivin (97-104) derived peptide, HLA class I, A02; excluded]	lowest immunogenicity
TQHFVQENYLEY [CHA-10, Mage-A3 (246-260) derived peptide, HLA class II, DRB1; excluded]	lowest immunogenicity

— US20250009861A1, “ANTI-CANCER VACCINE COMPOSITION COMPRISING PEPTIDES DERIVED FROM TUMOR-ASSOCIATED ANTIGEN, AND ADJUVANT CONSISTING OF LIPOPEPTIDE AND IMMUNOACTIVE SUBSTANCE, AND USE THEREOF” (CHA VACCINE RESEARCH INSTITUTE CO., LTD, priority 2021, published 2025)
